Source: publication PMC6934184, “Selective DNA-PKcs inhibition extends the therapeutic index of localized radiotherapy and chemotherapy” (The Journal of Clinical Investigation, 2019)

Biological target: T1, RET Y791F (Homo sapiens, UniProt P07949, Y791F)
T1 construct: purchased Thermo Fisher Scientific (Life Technologies) SelectScreen
Test: SelectScreen Z'LYTE
Type: biochemical
Procedure: The in vitro kinase selectivity of NU5455 was determined using the SelectScreen Broad Assay Panel (Thermo Fisher Scientific) involving activity and binding assays (Supplemental Table 1). […] Class IA PI3Ks were measured using the p85α subunit.
Kinase [ATP] % Assay Kinase [ATP] % Assay Kinase [ATP] % Assay Kinase [ATP] % Assay […]
RET Y791F Km app 9.2 Z PIK3CG (p110 gamma) Km app 2.9 A KIT D816H n/a -0.2 L TAOK2 (TAO1) Km app -5.1 Z […]
SGK (SGK1) Km app 8.5 Z MAP4K2 (GCK) Km app 2.7 Z TLK2 n/a -0.3 L STK38 (NDR) n/a -5.9 L
MERTK (cMER) Km app 8.3 Z CDK2/cyclin A Km app 2.7 Z TGFBR1 (ALK5) n/a -0.4 L MATK (HYL) Km app -6.3 Z
FYN Km app 8.3 Z EPHA1 Km app 2.7 Z CLK3 Km app -0.5 Z ABL1 E255K Km app -6.6 Z
TEC n/a 8.1 L CDK2/cyclin E1 n/a 2.7 L MAP3K14 (NIK) n/a -0.5 L STK17A (DRAK1) n/a -6.6 L
KIT V654A n/a 8.1 L TESK2 n/a 2.7 L AKT3 (PKB gamma) Km app -0.5 Z JAK2 JH1 JH2 Km app -6.7 Z
ROS1 Km app 8.0 Z SPHK1 Km app 2.7 A MAP3K9 (MLK1) Km app -0.5 Z PRKACB (PRKAC beta) n/a -6.8 L
FGFR3 K650E Km app 7.9 Z AMPK A2/B1/G1 Km app 2.6 Z IKBKB (IKK beta) Km app -0.6 Z PDGFRA (PDGFR alpha) Km app -6.8 Z
RAF1 (cRAF) Y340D Y341D 100 7.9 Z DYRK3 Km app 2.6 Z CAMK2A (CaMKII alpha) Km app -0.6 Z NEK9 Km app -7.2 Z
PI4KA (PI4K alpha) 10 7.8 A CSNK1D (CK1 delta) Km app 2.6 Z PRKCB1 (PKC beta I) Km app -0.7 Z PDK1 Km app -7.3 Z
HIPK2 Km app 7.8 Z ACVR2A n/a 2.5 L TTK n/a -0.7 L RPS6KB1 (p70S6K) Km app -7.8 Z […]

T1 sequence (P07949 29-1114 Y791F): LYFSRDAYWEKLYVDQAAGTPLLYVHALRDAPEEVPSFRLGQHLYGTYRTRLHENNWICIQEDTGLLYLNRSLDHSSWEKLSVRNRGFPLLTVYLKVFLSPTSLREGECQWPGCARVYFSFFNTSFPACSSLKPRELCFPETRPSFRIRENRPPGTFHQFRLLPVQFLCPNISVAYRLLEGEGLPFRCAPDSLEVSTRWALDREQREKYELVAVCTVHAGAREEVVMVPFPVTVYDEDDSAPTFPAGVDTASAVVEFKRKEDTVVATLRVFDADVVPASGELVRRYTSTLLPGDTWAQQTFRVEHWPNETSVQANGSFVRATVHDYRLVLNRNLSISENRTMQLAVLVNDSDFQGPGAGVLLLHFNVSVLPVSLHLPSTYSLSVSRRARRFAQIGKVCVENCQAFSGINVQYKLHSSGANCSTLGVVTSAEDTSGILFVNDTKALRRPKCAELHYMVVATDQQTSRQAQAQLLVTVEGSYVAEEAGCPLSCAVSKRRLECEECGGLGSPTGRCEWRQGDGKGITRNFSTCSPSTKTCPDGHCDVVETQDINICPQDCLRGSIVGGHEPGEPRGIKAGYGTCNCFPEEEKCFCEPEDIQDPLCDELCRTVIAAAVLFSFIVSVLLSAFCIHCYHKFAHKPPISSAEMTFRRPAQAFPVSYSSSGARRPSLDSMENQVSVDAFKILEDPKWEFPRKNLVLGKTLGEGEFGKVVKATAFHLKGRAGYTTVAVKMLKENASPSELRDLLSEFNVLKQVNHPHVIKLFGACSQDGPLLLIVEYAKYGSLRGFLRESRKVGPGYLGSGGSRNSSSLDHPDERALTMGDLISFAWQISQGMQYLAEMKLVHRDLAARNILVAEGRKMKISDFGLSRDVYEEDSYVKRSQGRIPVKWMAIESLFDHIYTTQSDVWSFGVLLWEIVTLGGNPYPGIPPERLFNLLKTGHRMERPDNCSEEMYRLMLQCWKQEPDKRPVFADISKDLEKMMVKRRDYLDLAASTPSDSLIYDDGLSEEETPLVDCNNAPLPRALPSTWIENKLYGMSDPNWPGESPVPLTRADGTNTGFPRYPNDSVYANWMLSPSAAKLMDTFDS

CN(C(=O)CN1CCOCC1)c1ccc2sc3c(-c4cccc5c(=O)cc(N6CC7CCC(C6)O7)oc45)cccc3c2c1 [NU5455]
inhibition at 1 µM: 9.2%
